Assay results published in US20100172854A1, “ANTIBACTERIAL FORMULATIONS” (priority 2007, published 2010).
In brackets after ≈: the same amount, converted by molar mass.

Assays:
Type in all cases: cell-based
[1] = tested on: Streptococcus mutans ATCC 25175; experiment: MIC assay; conditions: ATCC25175
Protocol: (§1) The S. mutans strains were cultured and maintained on Wilkins-Chalgren Anaerobe Medium (agar and broth) at pH 7.0 supplemented with 1 g/L glucose; all cultures were incubated at 37° C. for 48 h in an atmosphere containing 5% CO2.
(§2) This is a standard international method for quantitatively assessing the antimicrobial activity of a compound in a liquid medium. The method used a sterile 96-well microtitre plate, capable of holding about 200 μl of liquid per well. The wells contained liquid culture medium and ranges of decreasing concentrations of the relevant test compound in doubling dilutions (e.g. 1000, 500, 250, 125 . . . μg/ml, etc. down to 0.49 μg/ml). The culture media were as described above.
(§3) The wells were inoculated with a liquid suspension of freshly grown micro-organism and incubated under the conditions described above. After incubation, the microtitre plate was examined visually (with the aid of a light box) for cloudiness in each well, which would indicate microbial growth. The MIC value was recorded as the lowest concentration of test compound required to inhibit microbial growth, i.e. the lowest concentration for which the liquid in the well remained clear.
(§4) The assays included both negative (culture medium with no micro-organisms) and positive (culture medium plus diluting solvent plus micro-organism) controls.

[2] = tested on: Streptococcus mutans ATCC 35668; experiment: MIC assay; conditions: ATCC35668
Protocol: as §1, §2, §3, §4

P. granulosum PRP-005 = experiment: Agar dilution MIC assay; conditions: Propionibacterium, PRP005, resistance phenotype MLSK
Protocol: (§5) The propionibacteria were cultured and maintained on Wilkins-Chalgren Anaerobe Medium (agar and broth) at pH 6.0; all cultures were incubated anaerobically at 37° C. for 72 hours.
(§6) This is a standard international method for quantitatively assessing the antimicrobial activity of a compound in a solid medium. The test compound was prepared to 40× the highest concentration required (e.g. 10 mg/ml for a final concentration of 250 μg/ml) and a series of doubling dilutions were performed in a suitable solvent. A set amount of these antimicrobial stock solutions was then added to molten agar medium (ca. 55° C.), mixed thoroughly, poured into sterile Petri dishes and allowed to cool/set. The culture medium was as described above.
(§7) A Multipoint™ Inoculator (AQS Manufacturing Ltd, UK) was used to inoculate the plates by spotting the inocula onto the surface of the agar, delivering approximately 1 to 2 μl per spot (yielding 10^5 CFU (colony forming units) per spot).
(§8) The plate(s) were then incubated under the conditions described above, following which they were examined visually for signs of bacterial growth. The MIC value was ascertained when there was a marked reduction in, or total loss of, growth on the test plate at the lowest concentration as compared to that of the growth on the control plate.
(§9) The assays were conducted in triplicate and included a positive control (culture medium, diluting solvent and inoculum).

P. granulosum PRP-044 = experiment: Agar dilution MIC assay; conditions: Propionibacterium, PRP044, resistance phenotype MLS
Protocol: as §5, §6, §7, §8, §9

P. granulosum PRP-021 = experiment: Agar dilution MIC assay; conditions: Propionibacterium, PRP021, resistance phenotype MLS
Protocol: as §5, §6, §7, §8, §9

P. granulosum PRP-043 = experiment: Agar dilution MIC assay; conditions: Propionibacterium, PRP043, resistance phenotype MLS
Protocol: as §5, §6, §7, §8, §9

[3] = tested on: Propionibacterium acnes NCTC 737; experiment: Agar dilution MIC assay; conditions: Cutibacterium acnes, NCTC737, resistance phenotype None
Protocol: as §5, §6, §7, §8, §9

P. granulosum PRP-055 = experiment: Agar dilution MIC assay; conditions: Propionibacterium, PRP055, resistance phenotype None
Protocol: as §5, §6, §7, §8, §9

P. granulosum PRP-019 = experiment: Agar dilution MIC assay; conditions: Propionibacterium, PRP019, resistance phenotype MLSK
Protocol: as §5, §6, §7, §8, §9

[4] = tested on: Propionibacterium granulosum NCTC 11865; experiment: Agar dilution MIC assay; conditions: NCTC11865, resistance phenotype None
Protocol: as §5, §6, §7, §8, §9

[5] = tested on: Porphyromonas gingivalis NCTC 11834; experiment: MBC assay
Protocol: (§10) The P. gingivalis strains were cultured and maintained on Wilkins-Chalgren Anaerobe Medium (agar and broth) at pH 7.0; all cultures were incubated anaerobically at 37° C. for 5-7 days.
(§11) This assay, normally carried out after an MIC assay, determines the minimum concentration of a compound that is lethal to the micro-organism being tested.
(§12) These samples were then individually sub-cultured on antibiotic-free agar medium, under the incubation conditions described above. Following incubation they were examined visually for microbial growth.

[6] = tested on: Porphyromonas gingivalis ATCC BAA-308; experiment: MBC assay
Protocol: as §10, §11, §12

[7] = tested on: Porphyromonas gingivalis ATCC 53978; experiment: MBC assay
Protocol: as §10, §11, §12

[8] = tested on: Staphylococcus haemolyticus ATCC 29970; experiment: MIC assay; conditions: ATCC29970
Protocol: (§13) The staphylococci were cultured and maintained on Mueller-Hinton Medium (agar and broth) at pH 7.2; cultures were incubated aerobically at 37° C. for 19-20 hours.
as §2, §3, §4

[9] = tested on: S. epidermidis NCTC 11047; experiment: MIC assay; conditions: Staphylococcus epidermidis, NCTC11047
Protocol: as §13, §2, §3, §4

S. aureus CPHL EMRSA 16 = experiment: MIC assay; conditions: Staphylococcus aureus
Protocol: as §13, §2, §3, §4

[10] = tested on: Staphylococcus simulans ATCC 27848; experiment: MIC assay; conditions: ATCC27848
Protocol: as §13, §2, §3, §4

S. aureus CPHL EMRSA 15 = experiment: MIC assay; conditions: Staphylococcus aureus
Protocol: as §13, §2, §3, §4

S. aureus ATCC 25923 = experiment: MIC assay; conditions: Staphylococcus aureus, ATCC25923
Protocol: as §13, §2, §3, §4

[11] = tested on: Staphylococcus cohnii ATCC 29974; experiment: MIC assay; conditions: ATCC29974
Protocol: as §13, §2, §3, §4

[12] = tested on: Porphyromonas gingivalis NCTC 11834; experiment: MIC assay; conditions: NCTC11834
Protocol: as §10, §2, §3, §4

[13] = tested on: Porphyromonas gingivalis ATCC BAA-308; experiment: MIC assay; conditions: ATCCBAA308
Protocol: as §10, §2, §3, §4

[14] = tested on: Porphyromonas gingivalis ATCC 53978; experiment: MIC assay; conditions: ATCC53978
Protocol: as §10, §2, §3, §4

Work on `Cc1cc(Cc2cc(C)cc(C(C)(C)C)c2O)c(O)c(C(C)(C)C)c1` [AO 2246, 2,2′-methylene-bis(4-methyl-6-tert-butylphenol)] yielded an MIC [1] of 15.6 µg/mL (≈ 45.8 µM), an MIC [2] of 7.8 µg/mL (≈ 22.9 µM) and an MIC (P. granulosum PRP-005) of 3.9 µg/mL (≈ 11.5 µM). The MIC (P. granulosum PRP-044) was 3.9 µg/mL (≈ 11.5 µM), the MIC (P. granulosum PRP-021) was 3.9 µg/mL (≈ 11.5 µM) and the MIC (P. granulosum PRP-043) was 1.95 µg/mL (≈ 5.73 µM). The MIC [3] was 3.9 µg/mL (≈ 11.5 µM), the MIC (P. granulosum PRP-055) was 3.9 µg/mL (≈ 11.5 µM) and the MIC (P. granulosum PRP-019) was 3.9 µg/mL (≈ 11.5 µM). For the same compound, the MIC [4] was 1.95 µg/mL (≈ 5.73 µM), the “MIC/MBC Ratio” value [5] was 1 and the MBC ([5]; NCTC11834) was 3.9 µg/mL (≈ 11.5 µM). For the same compound, the “MIC/MBC Ratio” value [6] was 1, the MBC ([6]; ATCCBAA308) was 3.9 µg/mL (≈ 11.5 µM) and the MBC [7] was 1.95 µg/mL (≈ 5.73 µM). For the same compound, the “MIC/MBC Ratio” value [7] was 0.5, the MIC [8] was 3.9 µg/mL (≈ 11.5 µM) and the MIC [9] was 3.9 µg/mL (≈ 11.5 µM). The MIC (S. aureus CPHL EMRSA 16) was 1.95 µg/mL (≈ 5.73 µM), the MIC [10] was 15.6 µg/mL (≈ 45.8 µM) and the MIC (S. aureus CPHL EMRSA 15) was 1.95 µg/mL (≈ 5.73 µM). It also gave an MIC (S. aureus ATCC 25923) of 7.8 µg/mL (≈ 22.9 µM), an MIC [11] of 3.9 µg/mL (≈ 11.5 µM) and an MIC [12] of 3.9 µg/mL (≈ 11.5 µM). It also gave an MIC [13] of 3.9 µg/mL (≈ 11.5 µM) and an MIC [14] of 0.98 µg/mL (≈ 2.88 µM).
